≈ marks a conversion by molar mass, not a printed value.

What all share (format): functional
In one assay the test system is Escherichia coli. In words: Minimal inhibitory concentration against Escherichia coli (strain 54127) after 48 hr of incubation was evaluated.
The subject of a further assay is Enterococcus hirae. Put plainly: Minimal inhibitory concentration against Enterococcus hirae (strain CIP 5855) after 48 hr of incubation was evaluated. To be noted: CIP 5855, 48 h.
Assay [1] has as its system Candida albicans. In words: Minimal inhibitory concentration against Candida albicans (strain CIP 1180-79) after 48 hr of incubation was evaluated. To be noted: CIP 1180-79, 48 h.
The subject of a further assay is Saccharomyces cerevisiae. Put plainly: Minimal inhibitory concentration against Saccharomyces cerevisiae (strain ATC 28383) after 48 hr of incubation was evaluated.
For the next assay, the system named is Staphylococcus aureus. Put plainly: Minimal inhibitory concentration against Staphylococcus aureus (strain CIP 54127) after 48 hr of incubation was evaluated. As to conditions: CIP 54127, 48 h.
For assay [2], the system named is Candida albicans. Put plainly: Minimal inhibitory concentration against Candida albicans (strain CIP 1180-79) after 48 hr of incubation was evaluated; Range = 4 - 8 ug/mL. To be noted: CIP 1180-79, 48 h.

Regarding `CC(C)CCC[C@@H](C)[C@H]1CCC2C3C(CC[C@@]21C)[C@@]1(C)CC[C@H](O)CC1=C[C@@H]3NCCCNCCCCN` (stereo partly drawn), the minimal inhibitory concentration (MIC) (commonly the least concentration at which growth counts as inhibited) in the assay with Escherichia coli worked out at 3.12 µg/mL (≈ 5.89 µM); in the assay with Enterococcus hirae it was 6.25 µg/mL (≈ 11.8 µM); in the assay with Candida albicans [1], 3.12 µg/mL (≈ 5.89 µM); against Saccharomyces cerevisiae, 3.12 µg/mL (≈ 5.89 µM); against Staphylococcus aureus it was 6.25 µg/mL (≈ 11.8 µM).
On to `CC(C)[C@@H](CC[C@@H](C)[C@H]1CC[C@H]2[C@@H]3[C@H](O)C[C@H]4C[C@@H](NCCCNCCCCN)CC[C@]4(C)[C@H]3CC[C@]12C)OS(=O)(=O)O` [SQUALAMINE], for which the MIC in the assay with Candida albicans [2] was 8 µg/mL (≈ 12.7 µM); against Escherichia coli, greater than 100 µg/mL; with Staphylococcus aureus it was 1.56 µg/mL (≈ 2.48 µM).
For the compound `CC(C)CCC[C@@H](C)[C@H]1CCC2C3C(CC[C@@]21C)[C@@]1(C)CC[C@H](O)CC1=C[C@H]3NCCCNCCCCN` (stereo partly drawn), the MIC with Escherichia coli came to 6.25 µg/mL (≈ 11.8 µM); with Enterococcus hirae, 3.12 µg/mL (≈ 5.89 µM); against Candida albicans [1] it was 6.25 µg/mL (≈ 11.8 µM); with Saccharomyces cerevisiae, 3.12 µg/mL (≈ 5.89 µM); in the assay on Staphylococcus aureus it was 3.12 µg/mL (≈ 5.89 µM).

The record behind these values is ChEMBL document CHEMBL1137153, “Synthesis of 7 alpha- and 7 beta-spermidinylcholesterol, squalamine analogues” (2004).
